Columns and labels:
hair = test: Permanent waving of hair on curlers with the composition, then oxidative fixing; assessed by hairdresser and customer; format: in vivo, human; details: used alone as the hair keratine reducing agent
From the text: The method of permanent shaping of human hair according to the invention is defined as: A method for permanent shaping of hair, said method comprising the steps of: • (a) putting the hair in a desired shape; • (b) before and/or after the hair is put in the desired shape, applying an amount of a permanent shaping composition to the hair, and allowing the permanent shaping composition to act on the hair for a predetermined acting time sufficient for the permanent shaping of the hair; • (c) subsequently rinsing the hair with water or applying an intermediate treatment agent; • (d) performing an oxidative post-treatment of the hair; • (e) after the oxidative post-treatment, rinsing the hair with water and drying the hair, wherein said permanent shaping composition is a composition according to any-one of claims 1 to 13. Details of the method are given as follows. First the hair (which is washed and towel-dried) is separated into multiple sections and then these sections are rolled onto curlers. […] After the rolling on curlers is finished, the curlers are thoroughly wetted down using the required quantity of the permanent shaping composition, preferably about 60 g to about 120 g. […] The fixing composition is used in a quantity of about 50 g to about 200 g, preferably about 80 g to about 100 g, depending on hair thickness and length. […]

[1] = versus N-methylmercaptoacetamide and N-hydroxyethylmercaptoacetamide; cited from earlier work

Structure (SMILES): O=C(CS)NCCCO [N-(3′-hydroxypropyl)-2-mercapto-acetamide]
- fastness of the permanent shaped hair to humidity, particularly sweat (hair): not sufficient
- sensitization rates [1]: substantially lower sensitization rates

From patent US20080025938A1, “Method and composition for permanently shaping hair” (priority 2006, published 2008)
